Data as given in US20250186489A1, “REPROGRAMMING OF CELLS TO TYPE 1 CONVENTIONAL DENDRITIC CELLS OR ANTIGEN-PRESENTING CELLS” (Asgard Therapeutics AB, priority 2021, published 2025).

Key:
human cancer cell lines = experiment: Effect of valproic acid on cDC1 reprogramming of human cancer cell lines; format: cell-based; settings: VPA from day 1 to day 4, day 9
Experimental: (§1) Cancer cell lines were transduced with PIB-IRES-EGFP lentiviral particles or EGFP as control, and cultured in the presence or absence of VPA from reprogramming day 1 to day 4, and reprogramming efficiency was quantified by flow cytometry at reprogramming day 9 in live EGFP^+ cells according to the surface expression of CD45^+ and MHC-II or HLA-DR. Reprogrammed cells were then analysed as previously described.

LLC and B16 cells = experiment: Effect of valproic acid on reprogramming of mouse cancer cells; format: cell-based; settings: for fold enhancement of CD45^+ MHC-II^+ tumour-APC generation: SFFV-PIB-eGFP; for fold enhancement of CD45^+ MHC-II^+ tumour-APC generation / CD45^+ MHC-II^+ tumour-APCs: day 9
Experimental: as §1

[1] = test system: Clec9a-tdTomato mouse embryonic fibroblasts (MEFs); experiment: Replacement of PU.1 by homologs in cDC1 reprogramming of Clec9a-tdTomato MEFs; format: cell-based; settings: for tdTomato^+ cells (Clec9a reporter activation): factor in combination with IRF8 and BATF3
Experimental: Coding regions of SPIB and SPIC were individually cloned in the pFUW-TetO plasmid. Lentiviral particles encoding each individual transcription factor or the reverse tetracycline transactivator M2rtTA under the control of constitutively active human ubiquitin C promoter (pFUW-UbC-M2rtTA) were used for co-transduction (Rosa et al. 2018). Reprogramming efficiency was evaluated by flow cytometry in Clec9a-tdTomato mouse embryonic fibroblasts (MEFs) 9 days after transcription factor overexpression.

B16-OVA cells = experiment: T cell killing assay of B16-OVA target cells; format: cell-based, mouse; settings: low (1:1) T cell to target ratio, 3 days co-culture
Experimental: CD8^+ T cells from spleen of OT-I mice were enriched using a mouse CD8^+ T cell isolation kit (Miltenyi) according to manufacturer's protocol. 6-well untreated plates were coated with anti-CD3 and anti-CD28 at 2×10^−3 mg mL^−1 for 2 h at 37° C. and washed 3× before 1×10^6 T cells per mL were seeded in complete growth media (RPMI) supplemented with murine IL-2 (Peprotech, 100 U mL-1) and murine IL-12p70 (Peprotech, 2.5×10−3 mg mL-1). After 24 h of activation, T cells were re-seeded at 1×10^6 cells per mL in fresh complete RPMI supplemented with murine IL-2 for 48 h on new untreated plates to allow T cell expansion. MACS-sorted reprogrammed mOrange^+ B16-OVA cells or IFN-γ treated cells were seeded with non-fluorescent B16-OVA (mOrange−) in equal numbers, 24 h before co-culture with T cells. Expanded T cells were added in ratios of 0:1, 1:1, 5:1, 10:1 T cell to target cell. […] For flow cytometry analysis, cells were resuspended and stained for viability (DAPI) and anti-CD3 and measured at indicated time points post co-culture with T cells.

[2] = test system: human embryonic fibroblasts (HEF); experiment: cDC1 reprogramming efficiency of human embryonic fibroblasts, flow cytometry for CD45+HLA-DR+ cells at day 9; format: cell-based; settings: HEF with Dox-inducible PIB
Experimental: HEFs, HDFs and Clec9a-tdTomato MEFs were seeded at a density of 40,000 cells per well and MSCs at a density of 50,000 cells per well on 0.1% gelatin coated 6-well plates. On the following day, cells were incubated overnight with either a ratio of 1:1 TetO-PIB and M2rtTA, SFFV-PIB-GFP or SFFV-GFP lentiviral particles in media supplemented with 8 μg/ml polybrene. Cells were transduced overnight twice in consecutive days and media replaced in between. After the second transduction, media was replaced by normal growth media (day 0). When using TetO-PIB, media was supplemented with Dox (1 μg/ml). Media was changed every 2-3 days for the duration of cultures. When stated, media was supplemented with LPS (100 ng/ml, Enzo), Poly I:C (25 μg/ml, InvivoGen) and R848 (3 μg/ml, InvivoGen) overnight. Cytokines were added at day 2 and kept for the duration of cultures; For reprogramming in xeno-free conditions, MSCs were cultured in X-Vivo 15 (Lonza) after transduction and media changed every 2-3 days for the duration of cultures.
For the analysis of surface marker expression, human and mouse cells were dissociated and incubated with antibodies diluted in PBS 5% FBS at 4° C. for 30 minutes in the presence of mouse or rat serum (1/100, GeneTex), for human and mouse cells respectively, to block unspecific binding. Cells were washed and resuspended in PBS 5% FBS and analyzed in BD FACSCanto II or BD LSRFortessa flow cytometers (BD Biosciences), unless stated otherwise. DAPI was used for dead cell exclusion. Flow cytometry data were analyzed using FlowJo software (FLOWJO, LLC, version 10.6.1). All flow cytometry analyses were performed in live single cell gates.
Coding regions of ID2, TXNIP, ZFP36, PLEK, SUB1, JUNB, CREM, KLF4, MXD1, LITAF, IRF7, FOS, NMI, TFEC, SP110, IRF5, STAT2, BATF, ZNF267, IRF1, RELB and BATF2 were individually cloned in the pFUW-TetO plasmid. […] Reprogramming efficiency was evaluated by flow cytometry in HEFs 9 days after transcription factor overexpression.
17 human hematopoietic cytokines including inflammatory mediators (Table 3) were individually added to the culture media 2 days after PIB induction in HEFs, and reprogramming efficiency was measured at day 9. Changes in reprogramming efficiency were analysed using both single cytokines and combinations of two or three cytokines.
The impact on reprogramming efficiency after a combination of cytokine treatment and SFFV-driven PIB induction was evaluated. The scPred system was used for integration with “natural” DCs. See previous Examples for experimental details.

chromatin = experiment: ChIP-seq of PU.1, IRF8 and BATF3 in HDFs 48 h after induction; format: binding, human; settings: for chromatin binding, number of peaks: factors co-expressed, HDFs, 48 h; for positions shared between the three factors as share of total peaks of the factor: factors expressed together
Experimental: TFs were delivered with a polycistronic lentiviral vector (pFUW-tetO-PIB) or individual vectors (pFUW-tetO-PU.1, pFUW-tetO-IRF8, or pFUW-tetO-BATF3) with pFUW-M2rtTA. ChIP was performed 48 hours after the addition of Dox.
Chromatin in cultured cells was fixed by adding 1/10 volume of freshly-prepared formaldehyde solution [11% Formaldehyde (Sigma), 0.1M NaCl, 1 mM EDTA and 50 mM HEPES] to each cell suspension in complete DMEM. Tubes were left 15 minutes at room temperature with agitation. Fixation was stopped by adding 1/20 volume of […] Glycine solution (Sigma). After 5 minutes incubation, cells were centrifuged at 800 g for 10 min at 4° C. Cell pellets were resuspended in 10 ml chilled PBS-Igepal, 100 μl PMSF were added to each tube and centrifuged at 800 g for 10 minutes at 4° C. Cell pellets were snap-frozen on dry ice and stored at −80° C. Active Motif (Carlsbad, CA) prepared chromatin, performed ChIP, generated libraries and sequenced libraries. Briefly, chromatin was isolated by adding lysis buffer, followed by disruption with a Dounce homogenizer. Lysates were sonicated and the DNA sheared to an average length of 300-500 bp (Active Motif's EpiShear probe sonicator). Genomic DNA (Input) was prepared by treating aliquots of chromatin with RNase, proteinase K and heat for de-crosslinking, followed by clean up using solid phase reversible immobilization (SPRI) beads (Beckman Coulter) and quantitation by Clariostar (BMG Labtech). Extrapolation to the original chromatin volume allowed determination of total chromatin yield. 30 μg of chromatin was pre-cleared with protein A/G agarose beads (Invitrogen). Immunoprecipitations were performed with 4 μg of antibodies against human PU.1, IRF8 and BATF3 (rabbit anti-human PU.1, rabbit anti-human IRF8 or sheep anti-human BATF3). […] To confirm ChIP enrichment, quantitative PCR (QPCR) reactions were carried out in triplicate on specific genomic regions using SYBR Green Supermix (Bio-Rad). […] After a final PCR amplification step, the resulting DNA libraries were quantified and sequenced on Illumina's NextSeq 500 (75 nt reads, single end).
ChIP-seq analysis was performed on the raw FASTQ files. […] For genome tracks, bigwig files were created from bam files with deeptools (https://deeptools.readthedocs.io/en/develop/) and explored using the UCSC Genome Browser. For Chromatin State Fold-Enrichment analysis, enrichment scores for genomic features, such as PU.1, IRF8 and BATF3 ChIP-seq peaks and histone marks were calculated using ChromHMM Overlap Enrichment (http://compbio.mit.edu/ChromHMM/). […] Enrichment scores were calculated as the ratio between the observed and the expected overlap for each feature and chromatin state based on their sizes and the size of the human genome. […]

## CCCC(CCC)C(=O)O [VPA, valproic acid]
Human cancer cell lines
  reprogramming efficiency in human cancer cells: increased reprogramming efficiency in all tested lines
LLC and B16 cells; B16 cells
  fold enhancement of CD45^+ MHC-II^+ tumour-APC generation: ~5 fold
LLC and B16 cells; B16 cells, 5.9±4.8% without VPA
  CD45^+ MHC-II^+ tumour-APCs: 29.9±19.3%
LLC and B16 cells; LLC and B16 cells transduced with PIB
  MHC-I in transduced cells: upregulate MHC-I
LLC and B16 cells; LLC cells
  fold enhancement of CD45^+ MHC-II^+ tumour-APC generation: ~3 fold
LLC and B16 cells; LLC cells, 15.8±4.79% without VPA
  CD45^+ MHC-II^+ tumour-APCs: 45.9±25.5%
LLC and B16 cells; LLC-OVA and B16-OVA cells, OT-I CD8^+ T cells
  antigen presentation function of tumour-APCs generated in the presence of VPA: presented endogenous antigens to OT-I CD8^+ T cells

## SPIC: ETS-domain transcription factor, PU.1 homolog, SEQ ID NO: 25
[1]
  reporter activation by the factor alone: not able to activate the DC-specific reporter
  tdTomato^+ cells (Clec9a reporter activation): 1.46±0.73%
[1]; with IRF8 and BATF3
  ability to replace PU.1 in cDC1 reprogramming: could replace PU.1

## SPIB: ETS-domain transcription factor, PU.1 homolog, SEQ ID NO: 23
[1]
  reporter activation by the factor alone: not able to activate the DC-specific reporter
  tdTomato^+ cells (Clec9a reporter activation): about 8.14±1.16%
[1]; factor in combination with IRF8 and BATF3, gated in tdTomato^+
  tdTomato^+ cells co-expressing CD45 and MHC-II: 33.63±3.76%
[1]; with IRF8 and BATF3
  ability to replace PU.1 in cDC1 reprogramming: could replace PU.1
  fold increase in tdTomato^+ cells co-expressing CD45 and MHC-II in comparison to PU.1: 2 fold

## IFN-γ: cytokine
B16-OVA cells
  target cells killed by T cells: 12.31±7.1%
[2]
  fold increase in reprogramming efficiency versus condition without cytokines: 20 fold
[2]; cytokine added 2 days after induction, 0.4%±0.2% without cytokines
  CD45^+ HLA-DR^+ cell generation (hiDCs): 7.9%±2.2%

B1: IRF8: transcription factor of the interferon regulatory factor family, SEQ ID NO: 11 (protein, listed as Homo sapiens)
chain: MCDRNGGRRLRQWLIEQIDSSMYPGLIWENEEKSMFRIPWKHAGKQDYNQEVDASIFKAWAVFKGKFKEGDKAEPATWKTRLRCALNKSPDFEEVTDRSQLDISEPYKVYRIVPEEEQKCKLGVATAGCVNEVTEMECGRSEIDELIKEPSVDDYMGMIKRSPSPPEACRSQLLPDWWAQQPSTGVPLVTGYTTYDAHHSAFSQMVISFYYGGKLVGQATTTCPEGCRLSLSQPGLPGTKLYGPEGLELVRFPPADAIPSERQRQVTRKLFGHLERGVLLHSSRQGVFVKRLCQGRVFCSGNAVVCKGRPNKLERDEVVVFDTSQFFRELQQFYNSQGRLPDGRVVLCFGEEFPDMAPLRSKLILVQIEQLYVRQLAEEAGKSCGAGSVMQAPEEPPPDQVFRMFPDICASHQRSFFRENQQITV
modifications: Human IRF8 isoform 1 (protein sequence)
chromatin
  chromatin binding, number of peaks: 18,962 peaks
  positions shared between the three factors as share of total peaks of the factor: 28%

B2: BATF3: nuclear basic leucine zipper transcription factor, SEQ ID NO: 10 (protein, listed as Homo sapiens)
chain: MSQGLPAAGSVLQRSVAAPGNQPQPQPQQQSPEDDDRKVRRREKNRVAAQRSRKQTQKADKLHEEYESLEQENTMLRREIGKLTEELKHLTEALKEHEKMCPLLLCPMNFVPVPPRPDPVAGCLPR
modifications: Human BATF3 (protein sequence)
chromatin
  chromatin binding, number of peaks: 11,505 peaks
  positions shared between the three factors as share of total peaks of the factor: 47%
